The text below walks through data of patent US9458102B2 (priority 2011, dated 2016).

The target of series [1] is T1, Butyrylcholinesterase purified from human blood serum (Homo sapiens, UniProt P06276).
T1 construct: Butyrylcholinesterase purified from human blood serum; purchased Sigma; host or cells: purified from human blood serum
Briefly: In vitro hydrolysis by serum cholinesterase (butyrylcholinesterase). The conditions noted are these: for hydrolysis product after incubation with butyrylcholinesterase: 24-hour incubation. Type of series: in vitro ADME. As for the experimental part:
Compound 1 is rapidly hydrolyzed by butyrylcholinesterase in the bloodstream. Butyrylcholinesterase purified from human blood serum was used to test the resistance of the disclosed compounds to hydrolysis.
(§1) All enzymatic assays were performed with 50 μM compound in 0.1M phosphate buffer, pH 7.4, at 37° C. with stirring, unless otherwise noted. Butyrylcholinesterase stock solutions from human serum (Sigma, St. Louis, Mo.) were prepared at 100 U/mL in 0.1 M phosphate buffer, pH 7.4, and stored at −20° C. until use. Hydrolysis was monitored on an 8452A diode array spectrophotometer (Hewlett-Packard). Product peak wavelength absorption was immediately monitored upon addition of compound. Absorbances for complete hydrolysis were determined when there were no further detectable changes. […] All hydrolysis assays were performed in triplicate, and final rate constants are expressed as the mean±SD of the three individually determined rate constants. In some experiments with compound 1, samples were taken at the beginning and end of the assay to verify the hydrolysis product and the completion of the reaction by HPLC. These samples were compared to compounds 1 and 3 on a C18 column eluted with 0.1% TFA in water/acetonitrile. Activity of chymotrypsin (bovine, Worthington Biochemical Co., 190 μg/mL) was verified with 90 μM 4-nitrophenyl acetate in 0.1 M HEPES solution, pH 6.5, at 37° C. with stirring. Hydrolysis product was monitored at 404 nm for 10 min. Activity of proteinase K (from Engyodontium album, Sigma, 165 μg/mL) was verified with 16.5 mg/mL bovine serum albumin in 0.1 M phosphate buffer, pH 7.4, at 37° C. Samples were taken at time point increments up to 2 hours when the reaction reached completion. Samples were analyzed with 12% SDS-PAGE, stained with 0.1% Coomassie Blue.

A further series deals with rd1 mouse. Briefly: rd1 mouse model of retinal degeneration, subretinal injection. Type of series: in vivo. The conditions noted are these: subretinal injection at P12, estimated final concentration 5 μM, harvested at P17. As for the experimental part:
FIG. 9 is a set of four images of retinal sections from an untreated rd1 mouse euthanized at P17 (upper panels) and an rd1 mouse receiving a subretinal injection of 30 μM compound 8 (final concentration ^˜5 μM) at P12 and euthanized at P17 (lower panels). The photographs show standard histological analysis of retinal sections stained with cresol purple. The right panels are expansions of similar regions in each retina near the optic nerve. The white brackets mark the outer nuclear layer containing photoreceptor nuclei.
(§2) The rd1 mouse is a newer designation for the classic rd mouse, which harbors a nonsense mutation in the PDE6B gene. […] The rd phenotype has been studied for many years, and allows for more rapid assessment of protection strategies. However, the onset of rod photoreceptor death overlaps with the later stages of development and synaptogenesis, making it difficult to distinguish between the primary effects of rod degeneration and the consequences of abnormal neural development. The rd10 phenotype is more reminiscent of typical human RP.
FIG. 9 is a comparison of two rd1 eyes, one untreated (upper panel) and one receiving a subretinal injection of compound 8 to an estimated final concentration of 5 μM at P12. […] Indeed, the entire retina was healthier in appearance in the treated eye.

The next series addresses T2, chymotrypsin (Bos taurus, UniProt P00766).
T2 construct: purchased Worthington Biochemical Co
Briefly: In vitro hydrolysis by chymotrypsin. Type of series: in vitro ADME. On the procedure: as §1, with “In some experiments with compound 1, samples were taken at the beginning and end of the assay to verify the hydrolysis product and the completion of the reaction by HPLC. These samples were compared to compounds 1 and 3 on a C18 column eluted with 0.1% TFA in water/acetonitrile.” left out

Another series deals with T3, proteinase K (Parengyodontium album, UniProt P06873).
T3 construct: purchased Sigma
Briefly: In vitro hydrolysis by proteinase K. Type of series: in vitro ADME, Engyodontium album. As for the experimental part:
Hydrolysis products of 4-nitrophenyl acetate and BSA were detected as positive controls.
as §1

A further series relates to adult wild-type mice. Briefly: ERG in adult wild-type mice during 10-day treatment. Type of series: in vivo, mouse. The conditions noted are these: similar 10-day treatment. The text has this: (§3) In separate experiments on adult wild-type mice, the ERG a and b waves were blocked during a similar 10-day treatment, as expected for a concentration in excess of that required to completely block CNG channels. In the rd10 mouse some degeneration was probably underway before the treatment began.

Another series relates to rd10 mouse. Briefly: rd10 mouse model of retinal degeneration, intravitreal injection. As to conditions: intravitreal injection at P15, final concentration ~0.5 mM, euthanized at P25; PBS in the other eye. Type of series: in vivo. As for the experimental part:
FIG. 8 is a set of two images of retinal sections from the left eye (left panel) and right eye (right panel) of an rd10 mouse, intravitreally injected with PBS and 5 mM compound 9 (final concentration ^˜0.5 mM), respectively, at P15 and euthanized at P25. Retinas were sectioned at 20 microns, and stained with DAPI. Images are confocal stacks taken very close to the optic nerve. The outer nuclear layers corresponding to photoreceptor cells are shown with white brackets.
as §2, §3

SMILES strings stand for the structures.

T1 sequence (P06276 29-602): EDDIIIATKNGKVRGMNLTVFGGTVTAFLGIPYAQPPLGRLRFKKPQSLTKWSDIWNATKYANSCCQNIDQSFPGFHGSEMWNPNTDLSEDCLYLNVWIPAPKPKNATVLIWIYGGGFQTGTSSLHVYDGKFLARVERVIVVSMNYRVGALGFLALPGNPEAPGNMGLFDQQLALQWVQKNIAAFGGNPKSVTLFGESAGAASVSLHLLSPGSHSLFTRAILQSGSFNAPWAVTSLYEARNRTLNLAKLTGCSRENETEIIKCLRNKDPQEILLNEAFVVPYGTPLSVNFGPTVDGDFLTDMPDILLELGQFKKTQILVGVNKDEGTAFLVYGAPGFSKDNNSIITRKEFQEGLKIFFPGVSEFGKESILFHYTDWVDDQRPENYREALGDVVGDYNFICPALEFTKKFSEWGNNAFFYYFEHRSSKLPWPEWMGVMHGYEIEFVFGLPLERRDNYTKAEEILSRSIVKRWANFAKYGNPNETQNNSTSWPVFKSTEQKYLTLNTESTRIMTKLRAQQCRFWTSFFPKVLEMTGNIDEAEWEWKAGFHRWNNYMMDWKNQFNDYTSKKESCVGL
T3 sequence (P06873 106-384): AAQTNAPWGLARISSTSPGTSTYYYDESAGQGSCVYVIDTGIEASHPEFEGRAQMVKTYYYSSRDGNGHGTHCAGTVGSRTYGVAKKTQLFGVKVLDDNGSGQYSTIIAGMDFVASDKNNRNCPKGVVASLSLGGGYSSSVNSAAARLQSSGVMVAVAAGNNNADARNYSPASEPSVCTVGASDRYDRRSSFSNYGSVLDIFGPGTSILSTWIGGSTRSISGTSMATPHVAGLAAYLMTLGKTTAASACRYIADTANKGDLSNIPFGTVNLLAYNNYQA

In series [1] (50 μM compound, 0.1M phosphate buffer pH 7.4, 37° C., mean±SD of triplicate), `CCCCCCCCNc1ccc(C(=O)OCCN(C)C)cc1` [Compound 5, 2-(Dimethylamino)ethyl 4-(Octylamino)benzoate, reference compound] gave a Hydrolysis rate of 213 ± 31 nmol/min/mg.
For `CCCCNc1ccc(C(=S)NCCN(C)C)cc1` [Compound 8, 4-(Butylamino)-N-(2-(dimethylamino)ethyl)benzothioamide], the “rescuing effect on retina” value with rd1 mouse is on record as “very noticeable rescuing effect”. In addition, the “outer nuclear layer thickness” value in the series with rd1 mouse (untreated eye one cell thick) is “about three cells thick”. The “hydrolysis products with chymotrypsin” value on chymotrypsin is “not able to generate any detectable hydrolysis products”. Moreover, on proteinase K, the “hydrolysis products with proteinase K” value is “not able to generate any detectable hydrolysis products”. For the same compound, in series [1], the “hydrolysis product after incubation with butyrylcholinesterase” value was “no hydrolysis product was detected”.
Take `CCCCCCCCNc1ccc(C(=S)NCCN(C)C)cc1` [Compound 9, 4-(Octylamino)-N-(2-(dimethylamino)ethyl)benzothioamide]: on chymotrypsin, the “hydrolysis products with chymotrypsin” value is “not able to generate any detectable hydrolysis products”. Also, the “hydrolysis products with proteinase K” value on proteinase K is “not able to generate any detectable hydrolysis products”. Besides, the “ERG a and b waves” value with adult wild-type mice is on record as “blocked”. The “neuroprotection of the photoreceptor layer” value with rd10 mouse is given as “striking neuroprotection of the photoreceptor layer”. Moreover, in series [1], the “hydrolysis product after incubation with butyrylcholinesterase” value is given as “no hydrolysis product was detected”.
